Data reported in ChEMBL document CHEMBL1121951, “Synthesis and evaluation of N-(phenylalkyl)acetohydroxamic acids as potential substrates for N-arylhydroxamic acid N,O-acyltransferase” (1982).
Calls of active or inactive are those of the source. The rule behind the calls is not given here.

Assays:
[1] = species: Cricetulus griseus; experiment: Effect of the compound on hamster hepatic N-arylhydroxamic acid N,O-acyltransferase activity
[2] = species: Rattus norvegicus; experiment: Transacetylation rate in rat hepatic AHAT preparation; format: functional
[3] = species: Cricetulus griseus; experiment: Effect of the compound on hamster hepatic N,O-acyltransferase (AHAT) activity; format: functional
[4] = Effect for methylthio adduct formation at 1 mM concentration; format: functional
[5] = Effect for methylthio adduct formation at 2 mM concentration; format: functional
[6] = AHAT-catalyzed transacetylation rate at 0.5-1.0 concentration; No effect; format: functional
[7] = system: Cricetinae gen. sp.; experiment: Effect for methylthio adduct formation in presence of 0.1 mM N-hydroxy-4-aminobiphenyl and 10 mM N-acetylmethioninein hamster hepatic AHAT preparation at 30 min; format: functional, Cricetulus griseus
[8] = AHAT-catalyzed transacetylation rate at 0.5-1.0 concentration; format: functional
[9] = Compound inhibit the AHAT-catalyzed transacetylation activity; Active; format: functional
[10] = system: Cricetinae gen. sp.; experiment: Transacetylation rate in hamster hepatic AHAT preparation; format: functional, Cricetulus griseus

| Compound | Activity [1] [%] | Activity [2] | Reduction [4] [%] | Reduction [5] [%] | other results |
| --- | --- | --- | --- | --- | --- |
| CC(=O)N(O)Cc1ccccc1 | < 1 | – | – | – | – |
| CC(=O)N(O)CCCCc1ccccc1 | < 1 | 0.73 nmol/mg/min | – | – | – |
| CC(=O)N(O)CCc1ccccc1 | – | – | 8 | 17 | Activity [3]: < 1% |
| CC(=O)N(O)C1CCC(c2ccccc2)CC1 (stereo unspecified) | < 1 | – | 13 | 23 | Activity [6]: inactive |
| CC(=O)N(O)CCCc1ccccc1 | < 1 | – | – | – | – |
| CC(=O)N(O)c1ccc(-c2ccccc2)cc1 | – | 4.99 nM/min | – | – | Activity [7]: 120 nM; Activity [8]: 10%; Activity [9]: Active; Activity [10]: 9.14 nM/min |
